A short description of data set [1]: in vitro. The class given is in vitro ADME. The settings on record: human, plasma, pH 7.4. How it is done: Human plasma (BIOMEX GmbH) was mixed from more than 6 individuals and rat plasma was mixed from more than 10 rats. […] The samples were matched with opposite blank buffer to obtain a final volume of 100 µL with a volume ratio of the matrix: Dialysis Buffer (100 mM sodium phosphate and 150 mM NaCl, pH 7.4) (1:1) in each well. […] The plate was sealed and shaken at 800 rpm for 10 min. Then these T0 samples were stored at 4 °C pending further processing along with other post-dialysis samples. […] The plate was rotated at 100 rpm in a humidified incubator with 5% CO2 at 37 °C for 4 h. At the end of the dialysis, all samples were further processed by protein precipitation for LC-MS/MS analysis. The %bound was calculated using the following equations:%Unbound = 100 × F/T %Bound = 100 − %Unbound
F = Free compound concentration as determined by the calculated concentration on the buffer side of the membrane.
T = Total compound concentration as determined by the calculated concentration on the matrix side of the membrane.

Data set [2] concerns S. aureus ATCC 29213 (MSSA). Nature of the data set: MIC determination. The class given is cell-based. The following applies: Staphylococcus aureus.
The subject of data set [3] is E. faecalis EFA-1299. Nature of the data set: MIC determination. The settings on record: Enterococcus faecalis, EFA1299. The class given is cell-based.
The subject of data set [4] is E. faecalis ATCC 29212. Description: MIC determination. The class given is cell-based. The settings on record: Enterococcus faecalis, ATCC29212.
Data set [5] deals with A. baumannii ATCC BAA-1605. Nature of the data set: MIC determination. The class given is cell-based. The following applies: Acinetobacter baumannii, ATCCBAA1605.
Data set [6] concerns P. aeruginosa ATCC 27853. Description: MIC determination. The class given is cell-based. The settings on record: Pseudomonas aeruginosa, ATCC27853.
In data set [7] the test system is S. maltophilia STM-0001. Description: MIC determination. The class given is cell-based. The following applies: Stenotrophomonas maltophilia, STM0001.
The test system of data set [8] is M. tuberculosis H37Rv ATCC27294. Nature of the data set: MIC determination (Microplate Alamar Blue Assay). The class given is cell-based, Mycobacterium tuberculosis. The settings on record: M. tuberculosis H37Rv ATCC27294, 7 days. Background: Alamar Blue is a resazurin reagent that responds to reducing activity.
The subject of data set [9] is M. smegmatis mc^2155. Nature of the data set: MIC determination (Microplate Alamar Blue Assay). The class given is cell-based. The following applies: Mycolicibacterium smegmatis; M. smegmatis mc^2155, 72 h.
For data set [10] the following is noted: male, Sprague-Dawley, rat, in vivo, iv, 3 mg/kg.
For data set [11] the following is noted: allometric scaling from rat volume of distribution.
Data set [12] can be described thus: Pharmacokinetics in rats. The settings on record: Rat.

By fraction unbound is commonly meant free concentration divided by total concentration. A low value points to little free substance. Usually MIC stands for the lowest concentration found to suppress growth. Broadly, the MRT is the average time that molecules of a dose stay in the body.

In brackets after ≈: the same amount, converted by molar mass. Read-outs that look alike come from different tables or passages of the source. Some results are limits rather than exact numbers.

In data set [1], `C=C[C@]1(C)C[C@@H](OC(=O)COc2ccc3c(c2F)B(O)OC3)[C@]2(C)[C@H](C)CC[C@]3(CCC(=O)[C@H]32)[C@@H](C)[C@@H]1O` [AN11251] had a fraction unbound at 4 h, 2 µM of 0.024. In addition, the minimal inhibitory concentration (MIC) in [2] is less than 0.039 µg/mL; in data set [3] it was 4 µg/mL (≈ 7.57 µM); in data set [4] it was 5 µg/mL (≈ 9.46 µM); in data set [5], 32 µg/mL (≈ 60.6 µM); in data set [6], more than 32 µg/mL; in [7], more than 32 µg/mL. Besides, the MIC is 0.952 µg/mL (≈ 1.8 µM) in data set [8]; 0.925 µg/mL (≈ 1.75 µM) in data set [8] (Mycobacterium tuberculosis, 168 h, read-out: MIC); more than 20 µg/mL in data set [9]. For the same compound, the MRT in data set [10] is 1.04 h. For the same compound, the “predicted human volume of distribution” value in data set [11] is on record as 1.029 L/kg. For the same compound, in [12], the “time until eliminated (plasma concentration-time curve)” value is not above 8 h.

These data come from article PMC10302868 (Molecules, 2023).
